The text below walks through data of ChEMBL document CHEMBL4130622, “Retinoic Acid Receptor-Related Orphan Receptor γt (RORγt) Agonists as Potential Small Molecule Therapeutics for Cancer Immunotherapy” (J Med Chem, 2018).

For experiment [1], the target named is T1, Nuclear receptor ROR-gamma (Homo sapiens, UniProt P51449).
T1 sequence (P51449 whole entry): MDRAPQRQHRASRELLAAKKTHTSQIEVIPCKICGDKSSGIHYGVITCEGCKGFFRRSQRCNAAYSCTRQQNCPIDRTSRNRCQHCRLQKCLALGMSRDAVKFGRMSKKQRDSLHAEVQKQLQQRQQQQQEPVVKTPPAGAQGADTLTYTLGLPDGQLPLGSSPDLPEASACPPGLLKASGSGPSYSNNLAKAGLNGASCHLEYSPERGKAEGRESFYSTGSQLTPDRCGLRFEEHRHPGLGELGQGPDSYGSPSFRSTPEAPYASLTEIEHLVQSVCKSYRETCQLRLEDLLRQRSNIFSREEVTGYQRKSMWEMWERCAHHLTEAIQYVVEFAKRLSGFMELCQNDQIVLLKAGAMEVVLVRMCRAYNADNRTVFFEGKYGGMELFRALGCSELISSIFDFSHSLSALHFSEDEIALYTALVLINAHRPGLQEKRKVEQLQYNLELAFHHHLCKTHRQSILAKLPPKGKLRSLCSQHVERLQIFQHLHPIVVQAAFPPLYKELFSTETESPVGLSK
Nature of the experiment: Agonist activity at 6xHis tagged human RORgammat LBD (262 to 507 residues) expressed in Escherichia coli BL21 (DE3) assessed as biotinylated SRC1-2 peptide coactivator recruitment by AlphaScreen assay. A general note: Alpha assays give light when donor and acceptor beads are brought close together.

Experiment [2] has as its target T2, Nuclear receptor ROR-gamma (Homo sapiens) (UniProt P51449).
T2 sequence (whole entry): T1 sequence (P51449 whole entry)
As to the kind of experiment: Agonist activity at His tagged human RORgammat LBD (unknown origin) expressed in baculovirus infected sf9 cells assessed as biotinylated-LXXLL peptide coactivator recruitment at <0.5 uM incubated for overnight by TR-FRET Assay relative to control. A general note: Time-resolved FRET reads energy transfer from a long-lived donor to a nearby acceptor.

Experiment [3] has as its target T2, Nuclear receptor ROR-gamma (Homo sapiens). Nature of the experiment: Agonist activity at Gal4-fused DBD RORgammat LBD (unknown origin) expressed in HEK293 cells assessed as coactivator recruitment at <0.5 uM incubated for overnight in presence of ursolic acid by luciferase reporter gene Assay relative to control. Format: cell-based. In general terms: Reporter assays use an easily measured gene product as a stand-in for the process of interest.

In experiment [4] the target is T1, Nuclear receptor ROR-gamma. Nature of the experiment: Agonist activity at His tagged RORgammat LBD (unknown origin) expressed in baculovirus infected sf9 cells assessed as biotinylated-LXXLL peptide coactivator recruitment incubated for overnight by TR-FRET Assay.
The target of experiment [5] is T1, Nuclear receptor ROR-gamma. Nature of the experiment: Agonist activity at Gal4-fused DBD RORgammat LBD (unknown origin) expressed in HEK293 cells assessed as coactivator recruitment incubated for overnight in presence of ursolic acid by luciferase reporter gene Assay. The experiment is classed as cell-based.
The target of experiment [6] is T1, Nuclear receptor ROR-gamma. Nature of the experiment: Agonist activity at Gal4-fused RORgammat DNA binding domain (unknown origin) expressed in 293T cells assessed as SRC1 coactivator recruitment in presence of ursolic acid by TR-FRET assay. The experiment is classed as cell-based.

One may read the EC50 as the concentration that produces a half-maximal response.

For the molecule `CC(C)CCC[C@@](C)(O)[C@H]1CC[C@H]2[C@@H]3CC=C4C[C@@H](O)CC[C@]4(C)[C@H]3CC[C@@]21C`, the EC50 in experiment [1] fell in the range of 20 to 40 nM.
As for `O=C(O)C1Cc2ccc(OCc3c(F)cccc3Cl)cc2N(S(=O)(=O)c2cccc(C(F)(F)F)c2)C1` (stereo not given), the Activity in experiment [2] and in experiment [3] was greater than 200% each time.
As for `C/C(=C\c1ccc2c(c1)N(S(=O)(=O)c1cccc(C(F)(F)F)c1)C[C@H](CCc1nn[nH]n1)O2)c1c(F)cccc1Cl`, the Activity in experiment [2] and in experiment [3] was greater than 200% in each case.
In the case of `C[C@H]1CN(S(=O)(=O)c2cccc(C(F)(F)F)c2)c2nc(COc3c(F)cccc3Cl)ccc2O1`, the EC50 in experiment [4] and in experiment [5] was less than 500 nM throughout.
`CC(C)=CCC[C@@H](C)[C@H]1CC[C@H]2[C@@H]3CC=C4C[C@@H](O)CC[C@]4(C)[C@H]3CC[C@]12C` [DESMOSTEROL]: the EC50 in experiment [6] was determined as 80 nM.
For the molecule `COc1c(Cl)cccc1-c1ccc2c(c1)N(S(=O)(=O)c1cccc(C(F)(F)F)c1)C[C@H](CCC(=O)O)O2`, the Activity in experiment [2] and in experiment [3] was greater than 200% throughout.
Regarding `CC(C)CCC[C@@H](C)[C@H]1CC[C@H]2[C@@H]3CC=C4C[C@@H](O)CC[C@]4(C)[C@H]3CC[C@]12C` [CHOLESTEROL], in experiment [1], the half-maximal effective concentration (EC50) is 20 nM.
Consider `CCN(c1cccc(OCc2c(Cl)cccc2Cl)c1)S(=O)(=O)c1cccc(C(F)(F)F)c1`, for which the Activity in experiment [2] and in experiment [3] was greater than 200% throughout.
`CC(C)=CCC[C@@H](C)[C@H]1CC[C@H]2C3=C(CC[C@]12C)[C@@]1(C)CC[C@H](O)C[C@@H]1CC3`: in experiment [6], the EC50 stood at 110 nM.
With `CC(C)CC[C@@H](O)[C@@H](C)[C@H]1CC[C@H]2[C@@H]3CC=C4C[C@@H](O)CC[C@]4(C)[C@H]3CC[C@]12C` [22(R)-HYDROXYCHOLESTEROL], the EC50 in experiment [1] was in the range of 20 to 40 nM.
